# Assay results as given in patent US20240261224A1, “FORMULATION OF A PAN-JAK INHIBITOR” (KINASET THERAPEUTICS, INC., priority 2022, published 2024).
# “And” between values parts separate entries of the source, which are not always exact repeats. Equal values may be shown once.
# Assays:
# [1] = system: fractional exhaled nitric oxide (FeNO); assay: Phase 1 Part 2: FeNO reduction in ICS-naïve mild asthmatics; format: in vivo, human; conditions: for Mean placebo-corrected FeNO reduction: mild asthma ICS naïve
# Method: A status summary of the phase 1 clinical trial recruitment is shown below in Table 18. Capsules filled with blend 2a were used to achieve a 0.6 mg target dose of Compound I (0.2 mg capsules×3). Capsules filled with blend 4 were used to achieve 2.0 mg, 4.0 mg, 6.0 mg, 8.0 mg, and 12.0 mg target doses of Compound I (2.0 mg capsule×1; 4.0 mg capsule×1; 2.0 mg capsules×3; 4.0 mg capsules×2; and 4.0 mg capsules×3, respectively). Twice daily dosing (BID) was achieved by repeating the preceding regime. For example, an 8.0 mg BID dosing regime is achieved by administering two doses of 4.0 mg capsules×2.
# Particular FeNO reduction data from FIG. 5 is highlighted below in Table 19. For comparison, it is established that FeNO reductions greater than 20% are clinically significant (Am. J. Respir. Crit. Care Med. 2011, 184, 602).
# Day 10 pharmacokinetic parameters for Parts 2 and 3 of Phase I are summarized below in Table 28. Part 2 involved the administration of 4 different dose regimens, to subjects with mild asthma naïve to ICS therapy, over a 10-day period. Each separate cohort comprised 6 subjects receiving active treatment with 2 receiving matching placebo. Blood samples were collected to enable the measurement of Compound I concentrations in plasma. The resultant data was used to determine the PK parameters at Day 10 representing the Day on which the final dose was received.
# TYK2 = TYK2 (Homo sapiens, UniProt P29597); conditions: cited from earlier work
# [2] = system: induced sputum eosinophil count; assay: Phase 1 Part 3 induced sputum differential eosinophil count; format: in vivo, human; conditions: 4 mg BID
# Excerpt: Day 10 sputum and serum inflammatory biomarkers are shown below in Table 29. Part 3 included an evaluation of sputum samples obtained by sputum induction in accordance with European Respiratory Society guidelines (Paggiaro, et al., Eur. Respir. J. 2002, 20: Suppl. 37, 3 s). Subjects were randomized into sputum-producer and non-sputum producer strata with a target minimum of approximately 50% of subjects able to provide an adequate sputum sample at screening. […] Differential cell counts (DCC) were performed on samples judged adequate per standard procedure and patients with evaluable baseline (screening) and Day 10 (or Day 11 if Day 10 was not adequate) post-treatment samples were considered for analyses that included individual and mean absolute and percentage differential eosinophil counts.
# In the sputum producer stratum, 6 Compound I (active) subjects and 2 placebo subjects were identified as having adequate baseline and post-treatment sputum samples and the resultant data was used to determine change from baseline, mean change from baseline, and mean placebo-corrected change from baseline (Compound I vs placebo). […] At baseline, all subjects manifested a percent differential eosinophil count >3%, indicative of active eosinophilic inflammation. By Day 10, 66% ( 4/6) of active subjects had improved below 3% eosinophils, with 50% ( 3/6) below a more stringent threshold of 1.9% (Reddel et al., Am. J. Respir. Crit. Care Med. 2009, 180, 59).
# [3] = Day 10, Mean of active subjects (n = 6)
# [4] = Day 10, active (n = 6) vs placebo (n = 2)
# [5] = Day 10, individual active subjects 13026, 13027, 13038, 13073, 13095, 13097 (c1-c6)
# Sequence of TYK2 (P29597 whole entry): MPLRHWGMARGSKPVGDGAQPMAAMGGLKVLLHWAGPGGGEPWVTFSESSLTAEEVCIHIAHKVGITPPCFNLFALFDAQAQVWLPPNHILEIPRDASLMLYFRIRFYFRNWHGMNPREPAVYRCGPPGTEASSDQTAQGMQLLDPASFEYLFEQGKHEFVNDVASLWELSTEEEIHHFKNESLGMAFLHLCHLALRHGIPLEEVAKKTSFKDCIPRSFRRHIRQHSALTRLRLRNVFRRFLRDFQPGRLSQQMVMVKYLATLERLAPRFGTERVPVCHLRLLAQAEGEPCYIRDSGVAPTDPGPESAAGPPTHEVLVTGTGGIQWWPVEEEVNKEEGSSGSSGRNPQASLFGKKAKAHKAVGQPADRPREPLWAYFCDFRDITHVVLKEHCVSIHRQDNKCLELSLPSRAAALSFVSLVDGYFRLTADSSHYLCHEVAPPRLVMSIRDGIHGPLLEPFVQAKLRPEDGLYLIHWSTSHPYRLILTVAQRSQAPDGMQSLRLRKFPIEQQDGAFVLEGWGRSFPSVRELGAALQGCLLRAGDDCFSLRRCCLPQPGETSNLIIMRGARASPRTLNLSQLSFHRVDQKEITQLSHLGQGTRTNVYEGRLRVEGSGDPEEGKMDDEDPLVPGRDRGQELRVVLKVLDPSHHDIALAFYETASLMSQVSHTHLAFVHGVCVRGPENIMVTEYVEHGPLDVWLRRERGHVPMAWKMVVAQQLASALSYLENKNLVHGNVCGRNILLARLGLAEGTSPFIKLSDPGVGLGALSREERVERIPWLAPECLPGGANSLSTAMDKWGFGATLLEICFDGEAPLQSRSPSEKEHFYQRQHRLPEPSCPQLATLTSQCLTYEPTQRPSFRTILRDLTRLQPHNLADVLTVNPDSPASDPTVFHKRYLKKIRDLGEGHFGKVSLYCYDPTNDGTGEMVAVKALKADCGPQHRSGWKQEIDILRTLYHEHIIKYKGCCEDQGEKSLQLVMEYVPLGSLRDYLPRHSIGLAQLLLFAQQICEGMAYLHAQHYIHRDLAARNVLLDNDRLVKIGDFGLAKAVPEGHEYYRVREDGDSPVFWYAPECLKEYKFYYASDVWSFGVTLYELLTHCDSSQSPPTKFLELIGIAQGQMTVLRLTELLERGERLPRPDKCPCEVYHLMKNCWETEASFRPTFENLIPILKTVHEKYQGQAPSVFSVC
structure (smiles),measurement,setting,value
"Cn1c(=O)n([C@H]2CCCN(C(=O)CC#N)C2)c2nc(-c3cnn4ccccc34)ccc21 [Compound I, (S)-3-(3-(1-methyl-2-oxo-5-(pyrazolo[1,5-a]pyridine-3-yl)-1H-imidazo[4,5-b]pyridine-3(2H)-yl)piperidin-1-yl)-3-oxopropanenitrile]",Pharmacological activity of dose regimen (FeNO),[1]; 0.6 mg QD,minimally active dose
same,% subjects reporting Day 10 FeNO value <25 ppb,[1]; 0.6 mg QD (n = 6),16%
same,Mean placebo-corrected % FeNO reduction from day 1 pre-dose in ICS naïve mild asthmatics,"[1]; 0.6 mg QD (n = 6), Day 10 + 3 hrs",−5.4%
same,Mean placebo-corrected % FeNO reduction from day 1 pre-dose in ICS naïve mild asthmatics,"[1]; 0.6 mg QD (n = 6), Day 10 + 6 hrs",−6.7%
same,Mean placebo-corrected FeNO reduction,"[1]; 0.6 mg QD, 3 capsules per dose",−7%
same,Mean placebo-corrected FeNO changes,"[1]; 0.6 mg QD, Day 1 pre-dose to Day 10",< 20%
same,% subjects reporting Day 10 FeNO value <25 ppb,[1]; 2.0 mg QD (n = 6),16%
same,Mean placebo-corrected % FeNO reduction from day 1 pre-dose in ICS naïve mild asthmatics,"[1]; 2.0 mg QD (n = 6), Day 10 + 3 hrs",−26.6%
same,Mean placebo-corrected % FeNO reduction from day 1 pre-dose in ICS naïve mild asthmatics,"[1]; 2.0 mg QD (n = 6), Day 10 + 6 hrs",−24.0%
same,Mean placebo-corrected FeNO reduction,"[1]; 2.0 mg QD, 1 capsule per dose",−24%
same,% subjects reporting Day 10 FeNO value <25 ppb,[1]; 4.0 mg BID (n = 6),67%
same,Mean placebo-corrected % FeNO reduction from day 1 pre-dose in ICS naïve mild asthmatics,"[1]; 4.0 mg BID (n = 6), Day 10 + 3 hrs",−29.1%
same,Mean placebo-corrected % FeNO reduction from day 1 pre-dose in ICS naïve mild asthmatics,"[1]; 4.0 mg BID (n = 6), Day 10 + 6 hrs",−30.6%
same,Mean placebo-corrected FeNO reduction,"[1]; 4.0 mg BID, 1 capsule per dose",−26%
same,Mean placebo-corrected % FeNO reduction from Day 1 pre-dose,"[1]; 4.0 mg BID, Day 10 + 3 hours",29.1%
same,Mean placebo-corrected % FeNO reduction from Day 1 pre-dose,"[1]; 4.0 mg BID, Day 10 + 6 hours",30.6%
same,% subjects reporting Day 10 FeNO value <25 ppb,[1]; 8.0 mg BID (n = 6),50%
same,Mean placebo-corrected % FeNO reduction from day 1 pre-dose in ICS naïve mild asthmatics,"[1]; 8.0 mg BID (n = 6), Day 10 + 3 hrs",−29.1%
same,Mean placebo-corrected % FeNO reduction from day 1 pre-dose in ICS naïve mild asthmatics,"[1]; 8.0 mg BID (n = 6), Day 10 + 6 hrs",−25.9%
same,Pharmacological activity of dose regimens (FeNO),[1]; dose regimens from 2 mg QD to 8 mg BID,pharmacologically active
same,Inhibition of TYK2,TYK2,potent inhibitor
same,"Induced sputum % differential eosinophil count, % Change from Screening",[2]; [3],−65%
same,"Induced sputum % differential eosinophil count, Change from Screening",[2]; [3],−6.8%
same,"Induced sputum absolute differential eosinophil count, % Change from Screening",[2]; [3],−79%
same,"Induced sputum absolute differential eosinophil count, Change from Screening",[2]; [3],−0.15 10^6/g
same,"Induced sputum % differential eosinophil count, Mean placebo-corrected change",[2]; [4],−21.3%
same,"Induced sputum absolute differential eosinophil count, Mean placebo-corrected change",[2]; [4],−0.22 10^6/g
same,"Induced sputum % differential eosinophil count, % Change from Screening",[2]; [5],−54% and −48% and −81% and −64% and −75% and −94%
same,"Induced sputum % differential eosinophil count, Change from Screening",[2]; [5],−8.3% and −2.3% and −4.3% and −18.8% and −3.0% and −4.5%
same,"Induced sputum % differential eosinophil count, Reduced to normal level (<3%)",[2]; [5],No (2×) and Yes (4×)
same,"Induced sputum absolute differential eosinophil count, % Change from Screening",[2]; [5],−70% and −75% (2×) and −89% and −88% and −100%
same,"Induced sputum absolute differential eosinophil count, Change from Screening",[2]; [5],−0.16 10^6/g and −0.09 10^6/g and −0.08 10^6/g and −0.33 10^6/g and −0.07 10^6/g and −0.17 10^6/g
same,Active subjects below more stringent threshold of 1.9% eosinophils (sputum),[2]; by Day 10 (3/6),50%
same,Active subjects improved below 3% eosinophils (sputum percent differential count),[2]; by Day 10 (4/6),66%
same,"Induced sputum % differential eosinophil count, Day 10 level",[2]; Mean of active subjects (n = 6),3.7%
